This is an account of results in patent US20250136576A1, “Heterocyclic Compounds and Uses Thereof” (ACEA Therapeutics, Inc., priority 2021, published 2025).

The test system of the first assay is H1975 cells. Description: Cell proliferation and growth inhibition assay (CCK-8) in H1975. The class given is cell-based. As to conditions: Homo sapiens, NCI-H1975, 72 h, treated with test compounds for 72 hrs, CCK-8 viability, read-out: EGFR IC50 in H1975. On the procedure: MV-4-11 and H1975 cells were obtained from the American Type Culture Collection and KM12-luc cells were obtained from JCRB Cell Bank. All cell lines were maintained at 37° C. with 5% C02, in media supplemented with 10% fetal bovine serum and penicillin (100 units/mL) and streptomycin (100 μg/mL). MV-4-11 cells were maintained in Iscove's Modified Dubecco's Medium, H1975 cells were cultured with RPMI 1640 media, and KM12-luc cells were maintained in Dulbecco's Modification of Eagle's Medium. CCK-8 reagent was obtained from Yeasen.
Cell proliferation was assessed by CCK-8 assay (Yeasen) per the manufacturer's instructions. The MV-4-11 (AML), H1975, and KM12-luc cells were seeded at 30,000, 3,000 and 2,500 cells per well onto 96-well plates, and after a 24 h incubation, the cells were treated with test compounds for 72 hrs. Cell viability was assayed by incubating the cells with CCK-8 reagent for 1-4 hrs. Absorbance was measured at OD450 using the Beckman DTX880. The data was calculated using GraphPad Prism version 6.01. The IC50 values were fitted using a non-linear regression model with a sigmoidal dose response.
In the case of `CCC(=O)Nc1cc(Nc2nc(-c3c[nH]c4c(OC)cccc34)c3cc[nH]c3n2)ccc1N(C)CCN(C)C` [Compound 518, N-(2-((2-(dimethylamino)ethyl)(methyl)amino)-5-((4-(7-methoxy-1H-indol-3-yl)-7H-pyrrolo[2,3-d]pyrimidin-2-yl)amino)phenyl)propionamide], the IC50 (usually the concentration needed to halve the response being measured) was 406 nM. On to `CN(C)CCN(C)c1ccc(Nc2ncc(F)c(-c3c[nH]c4c(F)cccc34)n2)cc1N` [Compound 520, N^1-(2-(dimethylamino)ethyl)-N^4-(5-fluoro-4-(7-fluoro-1H-indol-3-yl)pyrimidin-2-yl)-N-methylbenzene-1,2,4-triamine], for which the half-inhibitory concentration (IC50) was 1180 nM. In the case of `CC(=O)Nc1cc(Nc2ncc(F)c(-c3c[nH]c4c(F)cccc34)n2)ccc1N(C)CCN(C)C` [Compound 521, N-(2-((2-(dimethylamino)ethyl)(methyl)amino)-5-((5-fluoro-4-(7-fluoro-1H-indol-3-yl)pyrimidin-2-yl)amino)phenyl)acetamide], the IC50 stood at 695 nM. On the same count and under the same terms, the figure for `CCC(=O)Nc1cc(Nc2ncc(F)c(-c3c[nH]c4c(F)cccc34)n2)ccc1N(C)CCN(C)C` [Compound 522, N-(2-((2-(dimethylamino)ethyl)(methyl)amino)-5-((5-fluoro-4-(7-fluoro-1H-indol-3-yl)pyrimidin-2-yl)amino)phenyl)propionamide] is 999 nM; for `Cc1cccc2c(-c3nc(Nc4ccc(N(C)CCN(C)C)c(N)c4)ncc3F)c[nH]c12` [Compound 524, N^1-(2-(dimethylamino)ethyl)-N^4-(5-fluoro-4-(7-methyl-1H-indol-3-yl)pyrimidin-2-yl)-N^1-methylbenzene-1,2,4-triamine] it is 425 nM; for `CC(=O)Nc1cc(Nc2ncc(F)c(-c3c[nH]c4c(C)cccc34)n2)ccc1N(C)CCN(C)C` [Compound 525, N-(2-((2-(dimethylamino)ethyl)(methyl)amino)-5-((5-fluoro-4-(7-methyl-1H-indol-3-yl)pyrimidin-2-yl)amino)phenyl)acetamide] it is 406 nM. Same read-out and setting: the figure for `CCC(=O)Nc1cc(Nc2ncc(F)c(-c3c[nH]c4c(C)cccc34)n2)ccc1N(C)CCN(C)C` [Compound 526, N-(2-((2-(dimethylamino)ethyl)(methyl)amino)-5-((5-fluoro-4-(7-methyl-1H-indol-3-yl)pyrimidin-2-yl)amino)phenyl)propionamide] is 656 nM. For `COc1cccc2c(-c3nc(Nc4ccc(N(C)CCN(C)C)c(N)c4)ncc3F)c[nH]c12` [Compound 528, N^1-(2-(dimethylamino)ethyl)-N^1-methyl-N^4-(5-fluoro-4-(7-methoxy-1H-indol-3-yl)pyrimidin-2-yl)benzene-1,2,4-triamine], the IC50 amounted to 298 nM. For the compound `COc1cccc2c(-c3nc(Nc4ccc(N(C)CCN(C)C)c(NC(C)=O)c4)ncc3F)c[nH]c12` [Compound 529, N-(2-((2-(dimethylamino)ethyl)(methyl)amino)-5-((5-fluoro-4-(7-methoxy-1H-indol-3-yl)pyrimidin-2-yl)amino)phenyl)acetamide], the IC50 amounted to 958 nM. In the case of `CCC(=O)Nc1cc(Nc2ncc(F)c(-c3c[nH]c4c(OC)cccc34)n2)ccc1N(C)CCN(C)C` [Compound 530, N-(2-((2-(dimethylamino)ethyl)(methyl)amino)-5-((5-fluoro-4-(7-methoxy-1H-indol-3-yl)pyrimidin-2-yl)amino)phenyl)propionamide], the half-inhibitory concentration (IC50) stood at 769 nM. Still for that read-out and setting: the same measure for `COc1cnc(Nc2ccc(N(C)CCN(C)C)c(N)c2)nc1-c1c[nH]c2c(C)cccc12` [Compound 532, N^1-(2-(dimethylamino)ethyl)-N^1-methyl-N^4-(5-methoxy-4-(7-methyl-1H-indol-3-yl)pyrimidin-2-yl)benzene-1,2,4-triamine]: 791 nM. On the same count and under the same terms, the same measure for `COc1cnc(Nc2ccc(N(C)CCN(C)C)c(NC(C)=O)c2)nc1-c1c[nH]c2c(C)cccc12` [Compound 533, N-(2-((2-(dimethylamino)ethyl)(methyl)amino)-5-((5-methoxy-4-(7-methyl-1H-indol-3-yl)pyrimidin-2-yl)amino)phenyl)acetamide]: 1110 nM; for `CCC(=O)Nc1cc(Nc2ncc(OC)c(-c3c[nH]c4c(C)cccc34)n2)ccc1N(C)CCN(C)C` [Compound 534, N-(2-((2-(dimethylamino)ethyl)(methyl)amino)-5-((5-methoxy-4-(7-methyl-1H-indol-3-yl)pyrimidin-2-yl)amino)phenyl)propionamide]: 1300 nM; for `COc1cnc(Nc2ccc(N(C)CCN(C)C)c(N)c2)nc1-c1c[nH]c2c(OC)cccc12` [Compound 536, N^1-(2-(dimethylamino)ethyl)-N^1-methyl-N^4-(5-methoxy-4-(7-methoxy-1H-indol-3-yl)pyrimidin-2-yl)benzene-1,2,4-triamine]: 837 nM. In the case of `CCC(=O)Nc1cc(Nc2ncc(OC)c(-c3c[nH]c4c(OC)cccc34)n2)ccc1N(C)CCN(C)C` [Compound 538, N-(2-((2-(dimethylamino)ethyl)(methyl)amino)-5-((5-methoxy-4-(7-methoxy-1H-indol-3-yl)pyrimidin-2-yl)amino)phenyl)propionamide], the 50% inhibitory concentration (IC50) worked out at 3680 nM. With `CCC(=O)Nc1cc(Nc2ncc(C(F)(F)F)c(-c3c[nH]c4c(F)cccc34)n2)ccc1N(C)CCN(C)C` [Compound 540, N-(2-((2-(dimethylamino)ethyl)(methyl)amino)-5-((4-(7-fluoro-1H-indol-3-yl)-5-(trifluoromethyl)pyrimidin-2-yl)amino)phenyl)propionamide], the IC50 is 95.4 nM.

The assay is the same for the next values; noted with them: treated with test compounds for 72 hrs, CCK-8 viability, read-out: EGFR IC50 in H1975.
Take `COc1cnc(Nc2ccc(N(C)CCN(C)C)c(NC(C)=O)c2)nc1-c1c[nH]c2c(C)cccc12` [Compound 537, N-(2-((2-(dimethylamino)ethyl)(methyl)amino)-5-((5-methoxy-4-(7-methyl-1H-indol-3-yl)pyrimidin-2-yl)amino)phenyl)acetamide]: the half-inhibitory concentration (IC50) was found to be 1080 nM.

In the next assay the test system is KM12-luc cells. In words: Cell proliferation and growth inhibition assay (CCK-8) in KM12-luc. The class given is cell-based. As to conditions: KM12-Luc, 72 h, KM12-luc cells, treated with test compounds for 72 hrs, CCK-8 viability; read-out: NTRK IC50 in KM12-luc. The method in brief:
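IC50 values were fitted by sigmoidal dose-response non-linear regression of CCK-8 OD450 absorbance after 1-4 hrs with reagent. Culture media were IMDM for MV-4-11, RPMI 1640 for H1975 and DMEM for KM12-luc, each with 10% FBS at 37 °C, 5% CO2.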
Consider `COc1cccc2c(-c3nc(Nc4ccc(N5CC[C@H](N(C)C)C5)c(N)c4)ncc3C(F)(F)F)cn(C)c12` [Compound S-390, (S)-4-(3-(dimethylamino)pyrrolidin-1-yl)-N^1-(4-(7-methoxy-1-methyl-1H-indol-3-yl)-5-(trifluoromethyl)pyrimidin-2-yl)benzene-1,3-diamine], for which the IC50 is 44.6 nM. Take `CC(=O)Nc1cc(Nc2ncc(Cl)c(-c3c[nH]c4c(F)cccc34)n2)ccc1N1CC[C@H](N(C)C)C1` [Compound S-409, (S)—N-(5-((5-chloro-4-(7-fluoro-1H-indol-3-yl)pyrimidin-2-yl)amino)-2-(3-(dimethylamino)pyrrolidin-1-yl)phenyl)acetamide]: the half-inhibitory concentration (IC50) worked out at 24.6 nM. Regarding `CN(C)[C@H]1CCN(c2ccc(Nc3ncc(Cl)c(-c4c[nH]c5c(F)cccc45)n3)cc2N)C1` [Compound S-414, (S)—N^1-(5-chloro-4-(7-fluoro-1H-indol-3-yl)pyrimidin-2-yl)-4-(3-(dimethylamino)pyrrolidin-1-yl)benzene-1,3-diamine], the half-inhibitory concentration (IC50) came to 50.1 nM. As for `CC(=O)Nc1cc(Nc2ncc(Cl)c(-c3cn(C)c4c(F)cccc34)n2)ccc1N1CC[C@H](N(C)C)C1` [Compound S-415, (S)—N-(5-((5-chloro-4-(7-fluoro-1-methyl-1H-indol-3-yl)pyrimidin-2-yl)amino)-2-(3-(dimethylamino)pyrrolidin-1-yl)phenyl)acetamide], the half-maximal inhibitory concentration (IC50) is 155 nM. As for `CN(C)[C@H]1CCN(c2ccc(Nc3ncc(Cl)c(-c4cn(C)c5c(F)cccc45)n3)cc2N)C1` [Compound S-420, (S)—N^1-(5-chloro-4-(7-fluoro-1-methyl-1H-indol-3-yl)pyrimidin-2-yl)-4-(3-(dimethylamino)pyrrolidin-1-yl)benzene-1,3-diamine], the half-inhibitory concentration (IC50) is 261 nM. Still for that read-out and setting: the figure for `COc1cccc2c(-c3nc(Nc4ccc(N5CC[C@H](N(C)C)C5)c(N)c4)ncc3Cl)cn(C)c12` [Compound S-439, (S)—N^1-(5-chloro-4-(7-methoxy-1-methyl-1H-indol-3-yl)pyrimidin-2-yl)-4-(3-(dimethylamino)pyrrolidin-1-yl)benzene-1,3-diamine] is 150 nM.

The assay is the same for the next values; noted with them: KM12-luc cells, treated with test compounds for 72 hrs, CCK-8 viability; read-out: NTRK IC50 in KM12-luc.
For the compound `Cc1cccc2c(-c3nc(Nc4ccc(N5CC[C@H](N(C)C)C5)c(N)c4)ncc3Cl)cn(C)c12` [Compound S-431, (S)—N-(5-chloro-4-(1,7-dimethyl-1H-indol-3-yl)pyrimidin-2-yl)-4-(3-(dimethylamino)pyrrolidin-1-yl)benzene-1,3-diamine], the concentration for half-maximal inhibition (IC50) stood at 39.6 nM. Still for that read-out and setting: the figure for `CC(=O)Nc1cc(Nc2ncc(Cl)c(-c3cn(C)c4c(C)cccc34)n2)ccc1N1CC[C@H](N(C)C)C1` [Compound S-432, (S)—N-(5-((5-chloro-4-(1,7-dimethyl-1H-indol-3-yl)pyrimidin-2-yl)amino)-2-(3-(dimethylamino)pyrrolidin-1-yl)phenyl)acetamide] is 22.4 nM.
